Biological target: T1, human RGS14 RGS-box (wild-type) (Homo sapiens, UniProt O43566)
T1 construct: human RGS14 RGS-box (aa 46–195 of UniProt O43566); host or cells: E. coli
T1 sequence (O43566 46-195): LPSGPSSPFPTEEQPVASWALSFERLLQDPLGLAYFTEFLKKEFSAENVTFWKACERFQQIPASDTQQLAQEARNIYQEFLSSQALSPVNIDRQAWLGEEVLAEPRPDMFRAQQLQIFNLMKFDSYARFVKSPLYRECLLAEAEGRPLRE
Experiment: Transcreener GDP RGScreen fluorescence polarization assay of RGS14 RGS-box GAP activity on Gαi1(DM)
Type: biochemical
Details: wild-type RGS14 RGS-box GAP activity, Gαi1(DM), Transcreener GDP RGScreen; read-out: RGS14 pIC50 (converted)
From the text: We previously described work with BellBrook Labs creating the Transcreener GDP RGScreen fluorescence polarization assay of steady-state GTP hydrolysis, leveraging a double point-mutant in the Gα enzyme to make GTP hydrolysis, rather than GDP (product) release, the rate-limiting step for multiple rounds of GTP conversion ([57], [59]). […] Titrating inputs of the double point-mutant (“DM”) Gαi1 and RGS-box recombinant proteins (Fig. S2, B and C) established a robust, medium-throughput assay for evaluating potential RGS14 and RGS12 inhibitors, with “assay quality” Z′ scores ([60]) above 0.76 for each target (Fig. S2D).
Reagents and protocols for the fluorescence anisotropy-based Transcreener GDP RGScreen assay using a rate-altered, double point-mutant, recombinant Gαi1 protein have been extensively described previously ([43], [44]); reactions were always performed so that total GTP converted over the time course was consistently less than 10% of reaction maximum input. Specific methods for its application in assessing RGS14 and RGS12 GAP activity are summarized as follows. Open-reading frames (ORFs) encoding wild-type versions of the human RGS14 RGS-box (aa 46–195 of UniProt O43566) and human RGS12 RGS-box (aa 695–843 of UniProt O14924) were each sub-cloned in-frame with an N-terminal hexahistidine (His6) expression tag in the plasmid pET30a, expressed in E. coli cultures, and then purified by nickel-nitriloacetate (Ni-NTA) and size-exclusion (Superdex 200) column chromatographies by GenScript using previously described methods ([35]). These recombinant His6-tag fusion proteins were stored at −80 °C in storage buffer (150 mM NaCl, 50 mM Tris-HCl pH 8.0, 10% glycerol) before thawing and use. Cysteine-less versions were similarly produced by ORF site-directed mutagenesis: for RGS14, codons for cysteine residues 47 and 130 (numbered as in PDB id 2JNU) were replaced with serine codons; for RGS12, codons for cysteines 4, 51, 78, and 134 (numbered in relation to PDB id 2EBZ) were replaced with serine codons. Use of Transcreener GDP-detection reagents to assess compound inhibition of Naegleria fowleri Gα7 protein GTPase activity ([83]) has previously been described ([84]).

IC50, > 1 mM:
COc1ccc2[nH]c(SCC(=O)c3ccc(O)c(O)c3)nc2c1 [Z223822242], COc1ccc(C(=O)C(C)Sc2nc3ccc(OC)cc3[nH]2)cc1 (stereo not shown) [Z16077705], COc1ccc2nc(SC(C)C(=O)Nc3cc(F)ccc3F)[nH]c2c1 (stereo not shown) [Z112468620], CCn1c(SC(C)C(=O)c2ccccc2)nc2cc(S(=O)(=O)N3CCOCC3)ccc21 (stereo not shown) [Z16669878], CCn1c(SC(C)C(=O)c2ccc(NS(C)(=O)=O)cc2)nc2ccccc21 (stereo not shown) [Z50932618], COc1ccc2nc(SC(C)C(=O)c3ccc(C(C)(C)C)cc3)[nH]c2c1 (stereo not shown) [Z16077565], COCCn1c(SC(C)C(=O)c2ccc3c(c2)CCN3C(C)=O)nc2ccccc21 (stereo not shown) [Z165550978], COc1ccc2nc(SCC(=O)c3ccc(O)cc3)[nH]c2c1 [Z112468740], CCn1c(SC(C)C(=O)c2ccc3c(c2)CCC3)nc2cc(S(=O)(=O)N3CCOCC3)ccc21 (stereo not shown) [Z16669629], CCn1c(SC(C)C(=O)c2ccc3c(c2)CCN3C(C)=O)nc2ccccc21 (stereo not shown) [Z165501154], COc1ccc2nc(SC(C)C(=O)c3ccc(OC(F)F)cc3)[nH]c2c1 (stereo not shown) [Z16077231], COc1ccc2[nH]c(SC(C(N)=O)c3ccc(F)cc3)nc2c1 (stereo not shown) [Z234729962], COc1ccc2nc(SCCC(=O)c3ccc(F)cc3)[nH]c2c1 [Z16077963], COc1ccc2nc(SC(C)C(=O)c3cccc(F)c3)[nH]c2c1 (stereo not shown) [Z5032180758], COc1ccc2nc(SCCOCC3CCCO3)[nH]c2c1 (stereo not shown) [Z1258859165], CCC(Sc1nc2ccc(OC)cc2[nH]1)C(=O)c1ccc(NC(C)=O)cc1 (stereo not shown) [Z1340653159], CCc1ccc(C(=O)C(C)Sc2nc3cc(C)ccc3[nH]2)cc1 (stereo not shown) [Z18443315], COc1ccc2nc(SC(C)C(=O)c3ccccc3)[nH]c2c1 (stereo not shown) [Z16077228], CCn1c(SC(C)C(=O)c2ccc(Br)cc2)nc2cc(S(N)(=O)=O)ccc21 (stereo not shown) [Z51418902], COc1ccc2nc(SC(C)C(=O)Nc3ccc(C)cc3)[nH]c2c1 (stereo not shown) [Z16077036], CCC(Sc1nc2ccc(OC)cc2[nH]1)C(=O)c1ccc(Cl)cc1 (stereo not shown) [Z5032180785], CCC(Sc1nc2ccc(OC)cc2[nH]1)C(=O)c1ccc(OC)cc1 (stereo not shown) [Z5032180767], CCn1c(SC(C)C(=O)c2ccc(Cl)cc2)nc2cc(S(N)(=O)=O)ccc21 (stereo not shown) [Z51418567], CCOc1ccc2nc(SCC(=O)c3ccc(CC)cc3)[nH]c2c1 [Z55030990], CCc1ccc(C(=O)C(C)Sc2nc3cc(S(N)(=O)=O)ccc3n2CC)cc1 (stereo not shown) [Z51418852], COc1ccc2nc(SC(C)C(=O)c3ccc4c(c3)CCN4C(C)=O)[nH]c2c1 (stereo not shown) [Z165591262], CC(=O)N1CCc2cc(C(=O)C(C)Sc3nc4cc(C)ccc4[nH]3)ccc21 (stereo not shown) [Z165332254], CCn1c(SC(C)C(=O)c2ccc(OC)cc2)nc2cc(S(N)(=O)=O)ccc21 (stereo not shown) [Z51419018], COc1ccc(C(=O)C(C)Sc2nc3ccc(OC)cc3[nH]2)c(OC)c1 (stereo not shown) [Z16077640], COc1ccc2nc(SC(C)C(=O)c3ccco3)[nH]c2c1 (stereo not shown) [Z3277796272], COc1ccc2nc(SC(C)C(=O)c3ccccc3C(F)(F)F)[nH]c2c1 (stereo not shown) [Z5032180788], Cc1ccc2[nH]c(SC(C)C(=O)c3ccc(OC(F)F)cc3)nc2c1 (stereo not shown) [Z18443016], CCn1c(SC(C)C(=O)c2ccc(F)cc2)nc2cc(S(N)(=O)=O)ccc21 (stereo not shown) [Z51419107], COc1ccc(C(=O)C(C)Sc2nc3cc(C)ccc3[nH]2)cc1Cl (stereo not shown) [Z5032180749], CCn1c(SC(C)C(=O)c2c(F)cc(F)cc2F)nc2ccccc21 (stereo not shown) [Z1098345881], COc1ccc2nc(SC(C)C(=O)c3ccc(OC)c(OC)c3)[nH]c2c1 (stereo not shown) [Z940567722], CCn1c(SC(C)C(=O)c2c(F)cc(F)cc2F)nc2cc(S(=O)(=O)N3CCCCC3)ccc21 (stereo not shown) [Z5032180738], COc1ccc2nc(SCC(O)c3ccccc3)[nH]c2c1 (stereo not shown) [Z56784116], COc1ccc2nc(SC(C)C(=O)c3cc(C)c(C)cc3C)[nH]c2c1 (stereo not shown) [Z16077531], CCn1c(SC(C)C(=O)c2ccc3c(c2)CCC3)nc2cc(S(N)(=O)=O)ccc21 (stereo not shown) [Z51418316], Cc1ccc2[nH]c(SC(C)C(=O)c3c(F)cc(F)cc3F)nc2c1 (stereo not shown) [Z1098347474], COc1ccc2nc(SC(C(=O)OC(C)(C)C)C(C)C)[nH]c2c1 (stereo not shown) [Z5032180761], COc1ccc2nc(SC(C)C(=O)c3ccc(NC(=O)C(C)C)cc3)[nH]c2c1 (stereo not shown) [Z65841956], COc1ccc2nc(SC(C)C(=O)c3ccc(F)c(F)c3)[nH]c2c1 (stereo not shown) [Z16077536], COc1ccc2nc(SCC(=O)c3ccc(F)cc3)[nH]c2c1 [Z16077977], COc1ccc2nc(SC(C)C(=O)c3ccc(NC(C)=O)cc3)[nH]c2c1 (stereo not shown) [Z16077185], COc1ccc(-n2c(SC(C)C(=O)c3cc(C)ccc3C)nc3ccccc32)cc1 (stereo not shown) [Z19576483], COc1ccc2nc(SC(C)C(=O)N(C)C)[nH]c2c1 (stereo not shown) [Z92077129], Cc1ccc2[nH]c(SC(C)C(=O)c3ccc(F)cc3)nc2c1 (stereo not shown) [Z18443583], COc1ccc2nc(SC(C)C(=O)c3[nH]c(C)c(C(C)=O)c3C)[nH]c2c1 (stereo not shown) [Z98717471], CCOc1ccc(C(=O)C(C)Sc2nc3ccccc3n2C)cc1 (stereo not shown) [Z15479255], CCOc1ccc(C(=O)C(C)Sc2nc3cc(S(N)(=O)=O)ccc3n2CC)cc1 (stereo not shown) [Z51419689], CC(Sc1nc2ccccc2n1C(C)C)C(=O)c1ccc(C(C)C)cc1C(C)C (stereo not shown) [Z54156331], COc1ccc2nc(SC(C)C(=O)c3ccc(C)c(C)c3)[nH]c2c1 (stereo not shown) [Z16077488], CCc1ccc(C(=O)C(C)Sc2nc3ccc(OC)cc3[nH]2)cc1 (stereo not shown) [Z16077530], COc1ccc(-n2c(SC(C)C(=O)c3c(F)cc(F)cc3F)nc3ccccc32)cc1 (stereo not shown) [Z5032180751], COc1ccc2nc(SC(C)C(=O)c3ccc(Br)cc3)[nH]c2c1 (stereo not shown) [Z16077584], CCn1c(SC(C)C(=O)c2ccc(NC(C)=O)cc2)nc2cc(S(N)(=O)=O)ccc21 (stereo not shown) [Z51418527], COc1ccc2nc(SC(C)C(=O)c3cccc(Cl)c3)[nH]c2c1 (stereo not shown) [Z16077229], CCn1c(SC(C)C(=O)c2cc(C)ccc2C)nc2cc(S(N)(=O)=O)ccc21 (stereo not shown) [Z51418807], COc1ccc2nc(SC(C)C(=O)c3ccc(F)cc3)[nH]c2c1 (stereo not shown) [Z16077798], COc1ccc2nc(SC(C)C(=O)c3cc(C)ccc3C)[nH]c2c1 (stereo not shown) [Z16077483], COCCn1c(SC(C)C(=O)c2ccc(Br)cc2)nc2ccccc21 (stereo not shown) [Z16216100], COc1ccc2nc(SC(C)C(=O)Nc3ccc(F)cc3F)[nH]c2c1 (stereo not shown) [Z112468618], COCCn1c(SC(C)C(=O)c2ccc(OC)cc2)nc2ccccc21 (stereo not shown) [Z16216221], CC(Sc1nc2ccccc2n1C)C(=O)c1ccc(NS(C)(=O)=O)cc1 (stereo not shown) [Z50932699], COc1ccc2nc(SC(C)C(=O)c3ccc(F)cc3F)[nH]c2c1 (stereo not shown) [Z167736700]
